Values quoted from earlier work in patent EP2561868A1 (Van Oosten, Anton Bernhard, priority 2011, dated 2013).
“Also recorded” adds a separate entry of the source.

Assays:
[1] = not given; remark: listed apart in the source
serum immunoglobulin = settings: patient Z
bone marrow plasma cell = settings: patient Z
[2] = tested on: multiple myeloma and MGUS; settings: patients with multiple myeloma and MGUS
P-glycoprotein = P-glycoprotein (Homo sapiens, UniProt P08183)
human CYP3A4 = human CYP3A4 (Homo sapiens, UniProt P08684)
human CYP3A4, sequence (P08684 whole entry): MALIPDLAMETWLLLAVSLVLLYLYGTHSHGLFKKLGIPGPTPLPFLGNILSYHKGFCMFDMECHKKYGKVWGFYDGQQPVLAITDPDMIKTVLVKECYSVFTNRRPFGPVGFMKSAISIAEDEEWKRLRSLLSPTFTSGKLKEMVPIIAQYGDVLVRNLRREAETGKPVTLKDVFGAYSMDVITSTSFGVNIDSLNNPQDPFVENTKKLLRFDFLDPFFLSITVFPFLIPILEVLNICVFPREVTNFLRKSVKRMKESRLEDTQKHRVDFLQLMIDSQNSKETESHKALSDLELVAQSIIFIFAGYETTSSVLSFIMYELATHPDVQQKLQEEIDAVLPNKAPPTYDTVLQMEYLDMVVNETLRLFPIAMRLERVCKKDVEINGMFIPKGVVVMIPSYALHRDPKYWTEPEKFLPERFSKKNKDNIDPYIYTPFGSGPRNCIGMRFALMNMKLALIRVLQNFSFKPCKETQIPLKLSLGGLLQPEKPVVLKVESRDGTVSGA

[3] = curcumin 8000 - 14,000 mg, no HCQ

P-glycoprotein, sequence (P08183 whole entry): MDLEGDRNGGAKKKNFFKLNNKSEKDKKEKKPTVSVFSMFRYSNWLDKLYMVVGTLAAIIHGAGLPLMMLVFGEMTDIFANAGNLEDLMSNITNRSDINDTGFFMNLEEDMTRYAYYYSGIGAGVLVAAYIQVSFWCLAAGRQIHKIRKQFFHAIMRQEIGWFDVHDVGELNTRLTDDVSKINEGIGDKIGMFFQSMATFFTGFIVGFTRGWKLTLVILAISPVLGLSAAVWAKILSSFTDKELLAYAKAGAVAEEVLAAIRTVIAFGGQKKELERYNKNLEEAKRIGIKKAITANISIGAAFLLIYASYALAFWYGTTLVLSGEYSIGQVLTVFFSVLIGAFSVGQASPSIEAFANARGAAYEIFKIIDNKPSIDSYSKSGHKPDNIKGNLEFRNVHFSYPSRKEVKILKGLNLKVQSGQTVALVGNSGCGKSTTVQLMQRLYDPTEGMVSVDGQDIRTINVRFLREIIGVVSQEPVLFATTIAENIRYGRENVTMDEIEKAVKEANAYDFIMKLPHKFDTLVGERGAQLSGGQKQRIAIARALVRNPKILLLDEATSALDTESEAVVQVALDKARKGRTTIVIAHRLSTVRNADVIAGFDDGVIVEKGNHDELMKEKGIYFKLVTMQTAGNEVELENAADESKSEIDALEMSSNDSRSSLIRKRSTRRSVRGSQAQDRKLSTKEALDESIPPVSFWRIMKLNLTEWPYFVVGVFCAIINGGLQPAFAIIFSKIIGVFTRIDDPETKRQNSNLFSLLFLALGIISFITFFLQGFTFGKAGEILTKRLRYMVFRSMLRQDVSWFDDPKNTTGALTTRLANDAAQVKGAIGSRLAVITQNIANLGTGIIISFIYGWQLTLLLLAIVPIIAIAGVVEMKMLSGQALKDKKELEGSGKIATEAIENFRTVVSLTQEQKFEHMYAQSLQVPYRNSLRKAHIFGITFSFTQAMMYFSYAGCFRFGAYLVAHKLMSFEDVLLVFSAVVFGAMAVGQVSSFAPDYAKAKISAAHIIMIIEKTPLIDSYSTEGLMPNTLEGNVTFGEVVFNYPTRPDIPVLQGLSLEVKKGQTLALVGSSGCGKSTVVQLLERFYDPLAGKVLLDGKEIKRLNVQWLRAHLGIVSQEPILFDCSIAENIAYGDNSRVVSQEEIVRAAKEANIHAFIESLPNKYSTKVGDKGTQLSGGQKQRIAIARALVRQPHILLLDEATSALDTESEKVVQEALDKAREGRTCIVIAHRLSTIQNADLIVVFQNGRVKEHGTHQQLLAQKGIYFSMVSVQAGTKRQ

CCN(CCO)CCCC(C)Nc1ccnc2cc(Cl)ccc12.O=S(=O)(O)O (centres unmarked) [Hydroxychloroquine, 2-[[4-[(7-Chloro-4-quinolyl)amino]pentyl]ethylamino] ethanol sulfate (1:1)]
risk of toxicity (after 5 to 7 years of use, or a cumulative dose of 1000 g): ~1%
dose considered safe (non-obese person (Marmor M et al., 2002)): 6.5 mg/kg/day
soluble in water [1]: at least 20%

O=C1CC[C@@]2(O)[C@H]3Cc4ccc(O)c5c4[C@@]2(CCN3CC2CC2)[C@H]1O5 [LDN]
IgG (serum immunoglobulin; serum, 12/26/07, LDN, diet): 30.0 g/L
M-IgG (serum immunoglobulin; serum, 12/26/07, LDN, diet): 20.5 g/L

COc1cc(/C=C/C(=O)CC(=O)/C=C/c2ccc(O)c(OC)c2)ccc1O [curcumin]
clinical benefit (bone marrow plasma cell; 8000 mg to 14,000 mg daily, June 27 to December 26, 2007): without any clear benefit
BMPC values / progression (bone marrow plasma cell; [3]): did not prevent progression or cause a downward evolution of the BMPC nor the m-spike; also recorded: No clear benefit
m-spike / M-IgG serum concentration, response to treatment (serum immunoglobulin; [3]): did not react to treatment
objective responses [2]: no objective responses

O=C(/C=C/C=C/c1ccc2c(c1)OCO2)N1CCCCC1 [piperine]
inhibition of P-glycoprotein (P-glycoprotein): inhibit
inhibition of human CYP3A4 (human CYP3A4): inhibit
